Assay results reported in US11974990B2, “TXNIP-TRX complex inhibitors and methods of using the same” (City of Hope, priority 2018, dated 2024).
“Also recorded” adds a separate entry of the source.

What was measured:
[1] = target: T1, TXNIP-TRX complex (Homo sapiens, UniProt Q9H3M7); assay: Co-IP using extracts from high glucose treated THP1 cells in the presence of compounds; assay type: biochemical; settings: extracts of THP1 cells treated with 25 mM glucose 3 days; compounds added to extract (5 uM)
T1 construct: Co-immunoprecipitation (Co-IP) of TXNIP with TRX in THP 1 monocytes cells treated with compounds under high glucose condition; endogenous in cells; host or cells: THP1 human monocytes cultured in 25 mM glucose
T1 sequence (Q9H3M7 1-391): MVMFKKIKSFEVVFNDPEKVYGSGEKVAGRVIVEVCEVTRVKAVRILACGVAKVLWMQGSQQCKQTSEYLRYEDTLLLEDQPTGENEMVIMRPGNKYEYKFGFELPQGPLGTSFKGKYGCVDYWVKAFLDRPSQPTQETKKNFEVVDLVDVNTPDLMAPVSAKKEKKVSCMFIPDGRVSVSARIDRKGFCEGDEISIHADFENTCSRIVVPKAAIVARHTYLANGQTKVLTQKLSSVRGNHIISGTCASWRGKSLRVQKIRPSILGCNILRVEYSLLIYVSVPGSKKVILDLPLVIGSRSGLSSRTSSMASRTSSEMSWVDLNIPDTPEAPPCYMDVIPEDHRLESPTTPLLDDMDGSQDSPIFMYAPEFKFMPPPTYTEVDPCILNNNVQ
Protocol: Assay 2: Co-IP using extracts from THP 1 cells treated high glucose and in the presence of compounds. In this assay, TXNIP is already highly expressed (because the cells are treated with HG), we assume there is high concentration of TXNIP/TRX complexes in the cell extract. Co-IPs were done in these extracts through adding TRX antibody and compounds. If a compound is able to break the (pre-formed) TXNIP/TRX complex, there will be a reduced signal (band intensity) in the assay.
Co-IP with THP1 high glucose treated extract in the presence of the compounds. THP1 cells were treated with 25 mM glucose for 3 days, the cell extract were prepared. Them 300 ul extract were used for TP. Compounds were added to 5 uM Co-IP were followed according to the Co-IP protocol.
1. Transfer the cultured cells from the culture dish to a 15-mL conical tube. 2. Centrifuge at 500×g for 2 min at 4° C. and remove the supernatant. 3. Wash with ice-cold PBS and centrifuge at 500×g for 2 min at 4° C. Remove the supernatant. 4. Repeat Step 3 twice.
5. Resuspend the cell pellet in ice-cold cell lysis buffer (1 mL per 1×10^7 cells) and incubate on ice for 10 min. 6. […]
Note: Pre-clearing the lysate is recommended to reduce the non-specific binding. However, if the protein is detected by western blotting, pre-clearing may not be necessary unless a contaminating protein is interfering with visualization of the protein of interest. […]

[2] = target: T2, purified TXNIP (Homo sapiens, UniProt Q9H3M7); assay: DARTS assay with purified TXNIP and TRX1 proteins; assay type: binding; settings: purified TXNIP + TRX1, protease, 7 minutes (FIG. 16)
T2 construct: purchased LSBio (TXNIP); Sigma (TRX1); host or cells: E. coli (TXNIP)
T2 sequence (Q9H3M7 1-391): T1 sequence (Q9H3M7 1-391)
Protocol: FIG. 16. […] Purified TRX and TXNIP proteins and C1 (at the indicated concentrations) were mixed together. Protease was added. Aliquots were withdrawn at 7 minutes and loaded on 10% SDS gels. C1: compound 1; control: without protease.
To further confirm that C1 is able to protect TXNIP from proteolysis in the presence of TXNIP+TRX1, we performed DARTS assay using pure TXNIP protein (LSBio) and TRX1 protein (Sigma). The TRX1 protein we employed is also usually used for TRX1 activity assays. In contrast, the TXNIP protein is generated by E. coli and might not be in the active form. Therefore, we re-natured the protein prior to use in the DARTS assay.

[3] = test system: TXNIP mRNA; assay: TXNIP mRNA expression (RT-PCR) in human 1.1B4 pancreatic β cells; assay type: cell-based; settings: 1.1B4 β cells, 25 mM glucose, 72 h (FIG. 12 left)
Protocol: FIG. 12. […] Human 1.1B4 β cells were cultured in 25 mM glucose with C1 (uM) for 72 h. Total RNA was prepared. RT-PCR was performed. Data shown are the mean+SEM from triplicates. Statistical analysis was performed for each column vs. HG DMSO using one-way ANOVA: *<0.0001.
RNA extraction and quantitative RT-PCR. RNA was extracted using the Direct-zol™ RNA MiniPrep Plus (Zymo Research). Reverse transcription of RNA samples into cDNA was performed using the GeneAmp RNA PCR Kit (Applied Biosystems), dNTP (from Roche Applied Science), Rnase inhibitor, MULV Reverse Transcriptase and Random hexamers reagent (all from Invitrogen). Diluted cDNA was quantified using real-time PCR performed with Power SYBR Green qPCR MasterMix (Applied Biosystem) and 7500 real-time PCR system (Applied Biosystems). The HPRT1 gene was used as an internal control.

CC(C)C(C(=O)O)N1C(=O)c2ccncc2C1=O (stereo not drawn) [Compound C1, 2-(1,3-dioxo-1,3-dihydro-2H-pyrrolo[3,4-c]pyridin-2-yl)-3-methylbutanoic acid]
effect on pre-formed TXNIP/TRX complex (co-IP band intensity) [1]: inhibit high glucose-induced TXNIP-TRX co-immunoprecipitation in cell extracts; also recorded: reproducibly can affect TXNIP/TRX complex
protection of purified TXNIP from proteolysis [2]: protects purified TXNIP from proteolysis
TXNIP mRNA expression [3]: affects TXNIP and TNF-α mRNA expression; also recorded: strongly inhibited TXNIP mRNA expression
